Source: US10988542B2, “Chimeric antigen receptors with integrated controllable functions” (CELLECTIS, priority 2015, dated 2021)
Like-named read-outs stand apart in the source and are kept apart here.

Columns and labels:
Daudi CD19 positive = experiment: Flow cytometry-based cytotoxicity assay of FKBP-FRB* mcCAR CD19 T-cells with AP21967; format: cell-based; settings: for EC50: Homo sapiens, Daudi, dose response 0, 1, 5, 10, 33, 100 nM
Procedure: The cytolytic activity of engineered T-cells endowed with the FKBP-FRB* mcCAR CD19 from example 2, was assessed using a flow cytometry-based cytotoxicity assay. In this assay target cells presenting the CAR target antigen (Daudi CD19 positive) are labelled with CellTrace™ CFSE or and control cells with CellTrace™ violet.
The whole cell population was recovered, washed in PBS and labeled with eFluor780 viability marker before being fixed by 2% PFA. Fixed cells were analyzed by flow cytometry to determine their viability. Flow cytometry and data analysis were performed as described in example 1.
The level of targeted cell killing also correlated with the level of CAR detection (FIG. 9).

FKBP-FRB* mcCAR CD19 = target: T1, FKBP-FRB* mcCAR CD19 (Homo sapiens, UniProt P62942); experiment: AP21967 switch-on: surface detection and dose response, CD19 targeting engineered CAR (Fab'2 detection); format: cell-based
T1 construct: expressed in transfected cells; host or cells: T cells, mRNA electroporation
T1 sequence (P62942 with tags, fused parts or gaps): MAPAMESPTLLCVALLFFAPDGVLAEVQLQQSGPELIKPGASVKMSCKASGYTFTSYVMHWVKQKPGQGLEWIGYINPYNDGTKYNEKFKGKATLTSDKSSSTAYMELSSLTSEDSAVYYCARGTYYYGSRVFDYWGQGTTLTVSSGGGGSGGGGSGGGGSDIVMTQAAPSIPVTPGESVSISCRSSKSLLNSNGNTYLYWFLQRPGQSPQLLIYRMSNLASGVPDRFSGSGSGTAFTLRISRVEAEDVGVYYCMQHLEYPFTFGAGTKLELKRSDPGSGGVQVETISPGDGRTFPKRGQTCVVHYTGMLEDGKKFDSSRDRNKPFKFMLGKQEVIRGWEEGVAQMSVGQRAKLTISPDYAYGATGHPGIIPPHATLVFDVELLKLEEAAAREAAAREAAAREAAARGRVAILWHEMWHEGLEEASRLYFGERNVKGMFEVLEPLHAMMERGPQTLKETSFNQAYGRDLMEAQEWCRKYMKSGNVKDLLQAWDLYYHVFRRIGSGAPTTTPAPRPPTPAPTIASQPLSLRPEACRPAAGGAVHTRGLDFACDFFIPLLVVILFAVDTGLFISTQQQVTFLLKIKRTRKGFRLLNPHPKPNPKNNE
T1 sequence (Q01362 with tags, fused parts or gaps partner limits assumed): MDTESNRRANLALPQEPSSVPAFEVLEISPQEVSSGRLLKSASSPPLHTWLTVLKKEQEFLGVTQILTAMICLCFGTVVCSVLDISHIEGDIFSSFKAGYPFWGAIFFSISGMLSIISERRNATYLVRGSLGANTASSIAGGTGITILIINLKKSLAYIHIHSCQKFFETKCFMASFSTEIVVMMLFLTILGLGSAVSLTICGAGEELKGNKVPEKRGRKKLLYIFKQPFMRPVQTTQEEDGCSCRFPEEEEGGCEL
T1 sequence (P30273 with tags, fused parts or gaps partner limits assumed): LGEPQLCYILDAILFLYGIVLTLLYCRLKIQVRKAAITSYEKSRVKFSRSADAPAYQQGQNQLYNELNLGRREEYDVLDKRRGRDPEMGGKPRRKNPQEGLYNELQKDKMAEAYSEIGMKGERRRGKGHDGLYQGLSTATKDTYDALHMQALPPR

MOLM13-Luc tumour cells = experiment: Antitumor activity of inducible CD123 CAR+ T cells with AP21967 in NOG mice injected with MOLM13-Luc; format: in vivo; settings: switch-on mcCAR-CD123 T cells IV plus AP21967 3 mg/kg/inj IP twice daily; FIG. 11
Procedure: The anti-tumor activity of human T-cells expressing a switch-on mcCAR-CD123 as described in Example 1, was assessed in NOG mice intravenously injected with MOLM13-Luc tumour cells.
To establish the MOLM13-Luc cell line, MOLM13 cells (DSMZ ACC 554) have been transduced with a lentivirus encoding the GFP and the firefly luciferase (amsbio LVP438-PBS). The GFP-positive cells have been selected with Neomycin (ref 10131-027, Gibco, Life Technologies, Saint-Aubin, France). MOLM13-Luc cells are grown in suspension at 37° C. in a humidified atmosphere (5% CO2, 95% air) into culture medium RPMI 1640 containing 2.05 mM L-glutamine (ref: BE12-702F, Lonza) supplemented with 15% fetal bovine serum (ref: 3302, Lonza, Verviers, Belgium), 100 U/mL Penicillin and 100 μg/mL Streptomycin (ref: DE17-602E, Lonza). The cells are counted in a hemocytometer and their viability is assessed by 0.25% trypan blue exclusion assay and are passed twice weekly (0.8 millions/mL) in fresh culture medium.
The day of injection to mice, frozen human T-cells transformed with the switch-on mcCAR-CD123 CAR are assessed to be within a range of 1-2.106 live cells per mL. […]
Mice were monitored daily with respect to their body weight measurements, clinical and mortality records, and treatment were recorded on Vivo Manager® database (Biosystemes, Dijon, France).

FKBP-FRB* scCAR = target: T2, FKBP-FRB* scCAR (Homo sapiens, UniProt P62942); experiment: AP21967 switch-on scCAR surface detection (Fc-tagged recombinant CD123); format: cell-based; settings: FKBP-FRB* domains; FIG. 7
T2 construct: expressed in transfected cells
T2 sequence (P62942 with tags, fused parts or gaps): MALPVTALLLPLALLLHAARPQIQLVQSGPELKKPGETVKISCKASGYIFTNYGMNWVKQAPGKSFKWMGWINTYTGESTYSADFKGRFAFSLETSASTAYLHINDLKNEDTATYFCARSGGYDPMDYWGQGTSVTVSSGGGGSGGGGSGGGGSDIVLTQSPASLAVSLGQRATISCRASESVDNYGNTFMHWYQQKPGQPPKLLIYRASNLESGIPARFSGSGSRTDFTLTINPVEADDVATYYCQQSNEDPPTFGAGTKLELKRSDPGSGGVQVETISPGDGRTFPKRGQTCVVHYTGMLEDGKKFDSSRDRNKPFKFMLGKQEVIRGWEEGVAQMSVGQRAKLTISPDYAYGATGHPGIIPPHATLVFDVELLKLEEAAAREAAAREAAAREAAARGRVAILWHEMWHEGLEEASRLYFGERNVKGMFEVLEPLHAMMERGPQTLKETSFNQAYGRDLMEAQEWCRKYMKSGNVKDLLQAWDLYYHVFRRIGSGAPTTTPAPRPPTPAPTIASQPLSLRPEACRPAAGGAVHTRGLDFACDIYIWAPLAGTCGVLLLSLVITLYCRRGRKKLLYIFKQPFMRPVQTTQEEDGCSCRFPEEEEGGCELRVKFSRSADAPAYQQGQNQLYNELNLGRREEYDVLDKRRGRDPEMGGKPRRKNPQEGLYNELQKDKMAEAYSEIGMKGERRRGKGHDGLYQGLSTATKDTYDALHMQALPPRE
Source text: The CAR extracellular domains (alpha chain) presented in example 2 were used as template to prepare plasmid DNA encoding single chain CARs (scCARs). The CD8 alpha transmembrane domain (SEQ ID NO: 32), the intracytoplasmic signalling region of the ζ-chain of the CD3-T cell receptor (SEQ ID NO: 28) and the signalling domains from co-stimulatory 4-1BB (CD137) (SEQ ID NO:31) were used to complete the CARs. scCARs were assemble by Golden Gate cloning using round of restriction and ligation, according to standard molecular biology procedures, leading to pCLS27572 (FKBP-FRB*) (SEQ ID NO:65), pCLS27603 (FKBP) (SEQ ID NO:66), pCLS27604 (FRB*) (SEQ ID NO:67). The respective amino acid sequences encoded by these constructs are shown in SEQ ID NOs: 68 to 70.
Primary labelling for the detection of the scCARs was performed with Fc-tagged recombinant CD123 (Lake Pharma) in PBS FBS2%, EDTA 2 mM, azide 0.1% for 20 min at 4° C. followed by a two washing steps with PBS FBS2% EDTA 2 mM azide 0.1%. […] Following the extracellular labelling, the cell viability was monitored using the efluor450 or efluor780 (ebioscience) in PBS for 20 min 4° C., followed by a washing step with PBS FBS2% EDTA 2 mM azide 0.1% and fixed in PFA 2%.

[1] = test system: FKBP/FRB-mcCAR and FRB/FKBP-mcCAR constructs; experiment: Rapamycin switch-on: surface detection of mcCAR with FKBP and FRB in the α-chain (flow cytometry); format: cell-based; settings: rapamycin 100 nM, 20 h vs no rapamycin
Source text: All constructs originated from the pCLS24707 (SEQ ID NO: 38) which encode the α-chain (SEQ ID NO: 39), β-chain (SEQ ID NO: 40) and γ-chain (SEQ ID NO: 41) of the multichain CAR (mcCAR). The sequences coding for the FRB domain (SEQ ID NO: 2) and FKBP domain (SEQ ID NO: 1) were synthetized de novo (GeneCust). The scFV, hinge-transmembrane-intracytoplasmic alpha chain domain, the FRB and the FKBP were further amplified by PCR to generate golden gate assembly compatible fragments (SEQ ID NO: 42 to 45). In addition an FRB-FKBP and an FKBP-FRB fragment were generated (SEQ ID NO: 46 to 47) using a four-EAAAR-linker (SEQ ID NO: 19) or a −GS-4x-EAAAR-linker (SEQ ID NO: 20) and standard molecular biology procedures. […]
All individual chains were amplified by PCR using oligo pairs α-chain-F/α-chain-R, β-chain-F/β-chain-R and γ-chain-F/γ-chain-R (SEQ ID NO: 56 to 61) prior to mRNA synthesis. mRNA encoding the different α-chains, β-chain, γ-chain were in vitro transcribed from the PCR product and polyadenylated using the mMessage mMachine T7 Ultra kit (Life technologies) following the manufacturer's instructions. RNAs were purified with RNeasy columns (Qiagen), eluted in cytoporation medium T and quantified by measuring absorbance at 260 nm using a Nanodrop ND-1000 spectrophotometer. […]

FKBP-FRB* mcCAR = target: T3, FKBP-FRB* mcCAR (Homo sapiens, UniProt P62942); experiment: Competition between AP21967 and tacrolimus, surface presentation of engineered CAR; format: cell-based; settings: AP21967 10 nM fixed, tacrolimus 0-500 nM, 20 hours
T3 construct: expressed in transfected cells; host or cells: T cells, mRNA electroporation
T3 sequence (Q01362 with tags, fused parts or gaps partner limits assumed): as the sequence (Q01362 with tags, fused parts or gaps partner limits assumed) above
T3 sequence (P30273 with tags, fused parts or gaps partner limits assumed): as the sequence (P30273 with tags, fused parts or gaps partner limits assumed) above

SMILES: CO[C@H]1[C@@H](O)[C@H](C)C[C@H](C)/C=C/C=C/C=C(\C)[C@@H](c2c[nH]c3c(C)cccc23)C[C@@H]2CC[C@@H](C)[C@@](O)(O2)C(=O)C(=O)N2CCCC[C@H]2C(=O)O[C@H]([C@H](C)C[C@@H]2CC[C@@H](O)[C@H](OC)C2)C[C@H](O)[C@H](C)/C=C(\C)[C@H]1O [AP21967]
- level of target cell killing versus AP21967 dose (Daudi CD19 positive; 0, 1, 5, 10, 33, 100 nM, FIG. 5B): correlated
- cytolytic activity of CAR T cells in presence of AP21967 (Daudi CD19 positive; AP21967 100 nM vs ethanol, E/T 20:1, 5 h, FIG. 5A): improved switched-on cytolytic activity
- EC50 (Daudi CD19 positive; FIG. 5B, read-out: EC50 of cytolytic capacity (approximate)): ~10 nM
- EC50 (Daudi CD19 positive; FIG. 5B, read-out: EC50 of cytolytic capacity (value in parentheses)): 12.7 nM
- surface exposition of mcCAR in presence of AP21967 (FKBP-FRB* mcCAR CD19; FKBP-FRB* domains in α-chain, FIG. 4): improved surface exposition
- concentration of maximum signal induction (FKBP-FRB* mcCAR CD19; dose response, surface detection): 100 nM
- survival of the mice (MOLM13-Luc tumour cells): increased the survival
- surface exposition of scCAR in presence of AP21967 (FKBP-FRB* scCAR): improved surface exposition

SMILES: CO[C@H]1C[C@@H]2CC[C@@H](C)[C@@](O)(O2)C(=O)C(=O)N2CCCC[C@H]2C(=O)O[C@H]([C@H](C)C[C@@H]2CC[C@@H](O)[C@H](OC)C2)CC(=O)[C@H](C)/C=C(\C)[C@@H](O)[C@@H](OC)C(=O)[C@H](C)C[C@H](C)/C=C/C=C/C=C/1C [rapamycin]
- improvement of surface detection considering the MFI [1]: up to 15 fold
- improvement of surface detection considering the percentage of positive cell [1]: ≤ 3 fold

SMILES: C=CC[C@@H]1/C=C(\C)C[C@H](C)C[C@H](OC)[C@H]2O[C@@](O)(C(=O)C(=O)N3CCCC[C@H]3C(=O)O[C@H](/C(C)=C/[C@@H]3CC[C@@H](O)[C@H](OC)C3)[C@H](C)[C@@H](O)CC1=O)[C@H](C)C[C@@H]2OC [tacrolimus]
- surface presentation/detection of the engineered CAR with increasing tacrolimus (FKBP-FRB* mcCAR): decreased surface detection
- surface presentation/detection of the engineered CAR with increasing tacrolimus (FKBP-FRB* mcCAR; listed as Tacrolimus): possibility to tune the surface presentation
